The numbers were not newly measured in article PMC7904743, “WIDOCK: a reactive docking protocol for virtual screening of covalent inhibitors” (Journal of Computer-Aided Molecular Design, 2021), which cites them from elsewhere.

Structures are written as SMILES. Read-outs that look alike come from different tables or passages of the source.

In one data set the test system is OTUB2. As to conditions: OTUB2 protein labeling; experimental actives if % labeling higher than 50%; cited from earlier work.
The conditions of data set [1]: thiol reactivity, cited from earlier work.
The subject of a further data set is NUDT7. The settings on record: protein labeling at 200 μM; experimental actives if % labeling higher than 50%; cited from earlier work.
Where [2] appears, read: natural log of average kinetic rate constant.
Where [3] appears, read: natural log of average rate constant.

Take `O=C(CCl)Nc1ccc(Br)cc1` [PCM-0102992, O=C(CCl)Nc1ccc(Br)cc1]: the OTUB2 % labeling in the data set on OTUB2 was 8%. The “ln(avg k)” value in data set [1] (setting [2]) and in data set [1] (setting [3]) was -15.800 each time. For the same compound, in the data set on NUDT7, the NUDT7 % labeling is 11%.
Regarding `N#CC1(NC(=O)CCl)CCCCC1` [PCM-0102993, N#CC1(NC(=O)CCl)CCCCC1], the OTUB2 % labeling in the data set with OTUB2 is recorded as 0%. For the same compound, the “ln(avg k)” value in data set [1] (setting [2]) and in data set [1] (setting [3]) was -16.137 each time. The NUDT7 % labeling with NUDT7 is given as 8%.
Regarding `Cc1cc(C)c(NC(=O)CCl)c(Cl)c1` [PCM-0102994, Cc1cc(C)c(NC(=O)CCl)c(Cl)c1], the OTUB2 % labeling with OTUB2 is on record as 0%. The “ln(avg k)” value in data set [1] (setting [2]) and in data set [1] (setting [3]) was -16.989 each time. Further, in the data set on NUDT7, the NUDT7 % labeling is reported as 26%.
Take `O=C(CCl)N1CCN(C(=O)C2COc3ccccc3O2)CC1` (centres unmarked) [PCM-0102996, O=C(CCl)N1CCN(C(=O)C2COc3ccccc3O2)CC1]: the OTUB2 % labeling in the data set with OTUB2 is recorded as 13%. Moreover, the “ln(avg k)” value in data set [1] (setting [2]) and in data set [1] (setting [3]) was -15.549 in each case. Moreover, the NUDT7 % labeling with NUDT7 is reported as 0%.
Take `O=C(CCl)NNC(=O)CC1CCS(=O)(=O)C1` (centres unmarked) [PCM-0102998, O=C(CCl)NNC(=O)CC1CCS(=O)(=O)C1]: the OTUB2 % labeling with OTUB2 is given as 69%. Further, the “ln(avg k)” value in data set [1] (setting [2]) and in data set [1] (setting [3]) was -16.898 throughout. The NUDT7 % labeling in the data set with NUDT7 is 0%.
With `O=C(CCl)Nc1ccc(F)cc1` [PCM-0103002, O=C(CCl)Nc1ccc(F)cc1], the OTUB2 % labeling in the data set on OTUB2 is 30%. Moreover, the “ln(avg k)” value in data set [1] (setting [2]) and in data set [1] (setting [3]) was -16.182 throughout. The NUDT7 % labeling in the data set with NUDT7 is 0%.
As for `O=C(CCl)Nc1ccc(F)cc1F` [PCM-0103004, O=C(CCl)Nc1ccc(F)cc1F], the OTUB2 % labeling in the data set with OTUB2 is reported as 26%. Also, the “ln(avg k)” value in data set [1] (setting [2]) and in data set [1] (setting [3]) was -15.968 each time. The NUDT7 % labeling in the data set on NUDT7 is 0%.
Turning to `O=C(CCl)N1CCN(Cc2ccco2)CC1` [PCM-0103006, O=C(CCl)N1CCN(Cc2ccco2)CC1], the OTUB2 % labeling in the data set with OTUB2 is recorded as 0%. Also, the “ln(avg k)” value in data set [1] (setting [2]) and in data set [1] (setting [3]) was -15.615 each time. Besides, in the data set on NUDT7, the NUDT7 % labeling was 0%.
Consider `O=C1CN(C(=O)CCl)CCN1` [PCM-0103008, O=C1CN(C(=O)CCl)CCN1], for which the OTUB2 % labeling in the data set with OTUB2 is 0%. The “ln(avg k)” value in data set [1] (setting [2]) and in data set [1] (setting [3]) was -15.775 each time. In addition, the NUDT7 % labeling with NUDT7 is reported as 0%.
On to `CC(=O)c1cc2c(cc1NC(=O)CCl)OCO2` [PCM-0103010, CC(=O)c1cc2c(cc1NC(=O)CCl)OCO2], for which the OTUB2 % labeling in the data set with OTUB2 was 0%. The “ln(avg k)” value in data set [1] (setting [2]) and in data set [1] (setting [3]) was -17.333 each time. For the same compound, the NUDT7 % labeling with NUDT7 is on record as 14%.
Take `O=C(CCl)NCC#Cc1cccc(C(F)(F)F)c1` [PCM-0103011, O=C(CCl)NCC#Cc1cccc(C(F)(F)F)c1]: the OTUB2 % labeling in the data set with OTUB2 is given as 84%. In addition, the “ln(avg k)” value in data set [1] (setting [2]) and in data set [1] (setting [3]) was -16.650 throughout. For the same compound, the NUDT7 % labeling in the data set on NUDT7 is 0%.
For the compound `NS(=O)(=O)c1ccc(Cl)c(NC(=O)CCl)c1` [PCM-0103012, NS(=O)(=O)c1ccc(Cl)c(NC(=O)CCl)c1], the OTUB2 % labeling with OTUB2 is 10%. In addition, the “ln(avg k)” value in data set [1] (setting [2]) and in data set [1] (setting [3]) was -15.947 each time. In the data set on NUDT7, the NUDT7 % labeling is given as 0%.
In the case of `Cc1ccccc1C(=O)NC1CCN(C(=O)CCl)CC1` [PCM-0103013, Cc1ccccc1C(=O)NC1CCN(C(=O)CCl)CC1], the OTUB2 % labeling in the data set with OTUB2 is 0%. The “ln(avg k)” value in data set [1] (setting [2]) and in data set [1] (setting [3]) was -15.378 each time. Besides, the NUDT7 % labeling in the data set with NUDT7 is 0%.
As for `CC(C)C(=O)NNC(=O)CCl` [PCM-0103014, CC(C)C(=O)NNC(=O)CCl], in the data set on OTUB2, the OTUB2 % labeling was 9%. Moreover, the “ln(avg k)” value in data set [1] (setting [2]) and in data set [1] (setting [3]) was -17.522 each time. Besides, the NUDT7 % labeling with NUDT7 is on record as 0%.
